Reference: patent US12590070B2, “Adamantane derivatives as inhibitors of focal adhesion kinase” (SAMJIN PHARMACEUTICAL CO., LTD., priority 2019, dated 2026)

Columns and labels:
[1] = biological target: T1, FAK (Homo sapiens, UniProt Q05397); assay: FAK [pY397] ELISA in Hs578T cells; assay type: cell-based; parameters: endogenous in cells; host or cells: MDA-MB-231; details: cell line Hs578T; read-out: FAK inhibitory activity (IC50)
[2] = system: Hs578T; assay: 3D spheroid assay, Hs578T; assay type: cell-based; details: Homo sapiens, Hs-578T; Hs578T spheroids, 96 hours; read-out: Cancer cell growth inhibitory activity (IC50)
Procedure: (§1) A 3D spheroid assay was performed as a method for measuring the growth of cancer cells under three-dimensional (3D) culture conditions. Briefly, the 5×10^3 triple-negative breast cancer cells in each well of a 96-well flat plate were three-dimensionally cultured for three days by using MammoCult™ Human Medium Kit (Stemcell Technologies, #05620) and the formed cancer cell spheroids were treated with compound 4 at different concentrations (o, 0.2, 0.5, 1, 2, 5, 10, 20 PM) for 96 hours. The cancer cell growth inhibitory effect of the compound was quantified according to the manufacturer's instructions by using CellTiter-Glo® 3D Cell Viability Assay Kit (Promega, G9681).

[3] = biological target: T2, Pyk2 (Homo sapiens, UniProt Q14289); assay: Eurofins kinase screening and profiling, Pyk2; assay type: biochemical
T2 construct: purchased Promega V4083
T2 sequence (Q14289 whole entry): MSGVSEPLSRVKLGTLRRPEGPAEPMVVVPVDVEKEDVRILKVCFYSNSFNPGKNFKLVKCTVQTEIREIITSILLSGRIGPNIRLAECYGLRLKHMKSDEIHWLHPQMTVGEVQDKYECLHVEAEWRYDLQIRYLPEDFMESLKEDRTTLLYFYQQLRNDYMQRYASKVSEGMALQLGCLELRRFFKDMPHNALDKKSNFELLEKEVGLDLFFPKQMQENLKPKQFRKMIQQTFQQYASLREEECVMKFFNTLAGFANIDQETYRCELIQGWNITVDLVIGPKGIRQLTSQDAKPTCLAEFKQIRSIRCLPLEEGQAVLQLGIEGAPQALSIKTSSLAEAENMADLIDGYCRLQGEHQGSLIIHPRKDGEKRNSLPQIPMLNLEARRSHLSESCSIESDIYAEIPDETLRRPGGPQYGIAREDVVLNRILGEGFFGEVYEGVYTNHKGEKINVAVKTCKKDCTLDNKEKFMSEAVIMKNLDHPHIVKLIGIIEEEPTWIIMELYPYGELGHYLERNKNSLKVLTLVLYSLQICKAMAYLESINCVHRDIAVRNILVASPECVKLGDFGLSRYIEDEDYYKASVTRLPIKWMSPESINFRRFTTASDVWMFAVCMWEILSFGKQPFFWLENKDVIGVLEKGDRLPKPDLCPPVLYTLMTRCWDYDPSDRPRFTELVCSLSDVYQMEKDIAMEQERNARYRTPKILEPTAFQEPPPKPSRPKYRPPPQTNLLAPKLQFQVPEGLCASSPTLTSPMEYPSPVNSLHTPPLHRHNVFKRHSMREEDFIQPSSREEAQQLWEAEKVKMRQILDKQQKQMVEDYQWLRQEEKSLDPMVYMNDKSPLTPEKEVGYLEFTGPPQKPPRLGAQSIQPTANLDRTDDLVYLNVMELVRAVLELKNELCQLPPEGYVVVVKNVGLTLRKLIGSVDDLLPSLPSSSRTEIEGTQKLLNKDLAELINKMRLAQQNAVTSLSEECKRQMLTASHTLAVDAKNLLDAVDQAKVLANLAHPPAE

[4] = system: MDA-MB-231 cells; assay: 3D invasion assay; assay type: cell-based, human; details: MDA-MB-231 spheroids, 1, 5 μM, 72 hours, FIGS. 2 and 3
Procedure: A cell invasion assay was performed and quantified according to a 3D invasion assay. Briefly, MDA-MB-231 cells were cultured in a 96-well round plate (5×10^3/well) for three days to form cancer cell spheroids, then fixed in a mixture of semi-solid Matrigel and type I collagen, and then treated with compound 4 at different concentrations (1, 5 μM). A degree of infiltration was analyzed by using a microscope (see FIG. 2) and an imaging software ImageJ in 72 hours later, and an obtained area value was quantified based on a following equation (Equation 1) and shown in a graph (see FIG. 3). Relative invasion=(total area of compound treated group−spheroid area of compound treated group)/(total area of control−spheroid area of control) [Equation 1]

[5] = biological target: T3, InsR (Homo sapiens, UniProt P06213); assay: ADP-Glo Kinase Assay, InsR; assay type: biochemical; details: ADP-Glo Kinase Assay Kit
T3 construct: purchased Promega V9401
Procedure: (§2) Briefly, a kinase test was performed and quantified according to the manufacturer's instructions after treating the adamantane derivative compound of the present invention by using the ADP-Glo™ Kinase Assay Kit (FAK, Promega, V1971; Pyk2, Promega, V4083; InsR, Promega, V9401) containing each kinase of Promega.

[6] = biological target: T4, Met (Homo sapiens, UniProt P08581); assay: Eurofins kinase screening and profiling, Met; assay type: biochemical
T4 construct: purchased Eurofins (contract screening service)
T4 sequence (P08581 25-1390): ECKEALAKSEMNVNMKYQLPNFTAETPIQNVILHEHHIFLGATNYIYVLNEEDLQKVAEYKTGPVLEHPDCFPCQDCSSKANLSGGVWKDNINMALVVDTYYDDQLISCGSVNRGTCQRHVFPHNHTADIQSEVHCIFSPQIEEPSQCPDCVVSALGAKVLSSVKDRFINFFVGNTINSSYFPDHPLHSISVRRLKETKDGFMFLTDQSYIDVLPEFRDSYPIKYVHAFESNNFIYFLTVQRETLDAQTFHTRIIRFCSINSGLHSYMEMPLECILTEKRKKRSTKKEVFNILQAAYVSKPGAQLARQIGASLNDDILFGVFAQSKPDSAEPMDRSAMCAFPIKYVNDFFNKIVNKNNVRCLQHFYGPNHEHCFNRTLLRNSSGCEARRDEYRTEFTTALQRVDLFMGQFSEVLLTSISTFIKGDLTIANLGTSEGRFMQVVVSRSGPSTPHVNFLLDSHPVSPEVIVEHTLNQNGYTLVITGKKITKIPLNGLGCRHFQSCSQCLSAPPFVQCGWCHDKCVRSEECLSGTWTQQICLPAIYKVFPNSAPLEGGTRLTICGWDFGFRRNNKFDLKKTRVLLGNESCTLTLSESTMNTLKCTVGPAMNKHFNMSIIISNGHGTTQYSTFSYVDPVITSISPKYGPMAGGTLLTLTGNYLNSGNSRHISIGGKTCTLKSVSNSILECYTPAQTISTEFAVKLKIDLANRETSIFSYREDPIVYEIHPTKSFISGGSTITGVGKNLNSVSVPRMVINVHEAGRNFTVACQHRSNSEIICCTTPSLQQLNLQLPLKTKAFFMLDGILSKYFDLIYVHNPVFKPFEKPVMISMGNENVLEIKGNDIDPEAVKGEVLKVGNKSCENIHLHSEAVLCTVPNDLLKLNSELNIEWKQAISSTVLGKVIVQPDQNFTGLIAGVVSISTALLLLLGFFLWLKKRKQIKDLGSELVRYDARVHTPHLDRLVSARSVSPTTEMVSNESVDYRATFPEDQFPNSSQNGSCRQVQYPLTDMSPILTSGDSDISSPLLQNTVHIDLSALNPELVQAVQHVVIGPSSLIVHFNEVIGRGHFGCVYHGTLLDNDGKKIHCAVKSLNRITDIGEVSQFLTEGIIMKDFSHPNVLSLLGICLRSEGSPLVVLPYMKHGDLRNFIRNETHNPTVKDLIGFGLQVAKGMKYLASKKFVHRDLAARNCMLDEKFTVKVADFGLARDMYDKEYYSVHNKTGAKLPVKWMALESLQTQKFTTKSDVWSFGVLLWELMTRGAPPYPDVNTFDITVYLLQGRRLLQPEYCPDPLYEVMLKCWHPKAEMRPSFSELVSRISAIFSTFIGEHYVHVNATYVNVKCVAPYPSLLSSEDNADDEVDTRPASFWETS

[7] = biological target: T1, FAK; assay: FAK [pY397] ELISA in HCC70 cells; assay type: cell-based; parameters: endogenous in cells; host or cells: MDA-MB-231; details: cell line HCC70; read-out: FAK inhibitory activity (IC50)
Procedure: (§3) Briefly, an enzyme-linked immunosorbent assay test was performed according to the manufacturer's instructions by using the FAK (Phospho) [pY397] Human ELISA Kit (Thermo Fisher Scientific, KH00441) after dispensing 1×10^6 MDA-MB-231 cells into each well of a 6-well plate, inducing cell stabilization for 24 hours, and treating each compound at different concentrations (o, 1, 5, 10, 50, 100, 500, 1000 nM) for one hour.

[8] = biological target: T1, FAK; assay: FAK [pY397] ELISA in BT-20 cells; assay type: cell-based; parameters: endogenous in cells; host or cells: MDA-MB-231; details: cell line BT-20; read-out: FAK inhibitory activity (IC50)
[9] = system: MDA-MB-453; assay: 3D spheroid assay, MDA-MB-453; assay type: cell-based; details: Homo sapiens; MDA-MB-453 spheroids, 96 hours; read-out: Cancer cell growth inhibitory activity (IC50)
Procedure: as §1

[10] = biological target: T1, FAK; assay: FAK [pY397] ELISA in MDA-MB-231 cells; assay type: cell-based; parameters: endogenous in cells; host or cells: MDA-MB-231; details: MDA-MB-231, treated for one hour, Table 2; read-out: FAK inhibitory activity (IC50)
Procedure: as §3

[11] = system: MDA-MB-231 cells; assay: Triple-negative breast cancer xenograft mouse model; assay type: in vivo; details: MDA-MB-231 xenograft nude mice
Procedure: In one week after acclimatization of five-week-old male nude mice, 1×10^6 MDA-MB-231 cells were subcutaneously inoculated into the mice and observed until a tumor volume reached about 100 mm^3 after 14 days. In order to confirm a tumor growth inhibitory effect of derived candidate materials in the triple-negative breast cancer xenograft mouse model, eight mice for each group were divided into a control group and three experimental groups at different concentrations (4-20 mg/kg, 4-40 mg/kg and 4-80 mg/kg), and each compound was treated once daily. A tumor volume of the mice was measured three times a week on every other day, and the mice were sacrificed on day 29 after cell inoculation. FIG. 4 is a graph showing the tumor volume calculated based on the following formula (Equation 2) with a starting date of drug treatment as day 1. Tumor volume (mm^3)=[(tumor short diameter^2×tumor long diameter)/2] [Equation 2] […] [Equation 3]

[12] = biological target: T1, FAK; assay: FAK [pY397] ELISA in BT-549 cells; assay type: cell-based; parameters: endogenous in cells; host or cells: MDA-MB-231; details: cell line BT-549; read-out: FAK inhibitory activity (IC50)
[13] = biological target: T1, FAK; assay: FAK [pY397] ELISA in MDA-MB-453 cells; assay type: cell-based; parameters: endogenous in cells; host or cells: MDA-MB-231; details: cell line MDA-MB-453; read-out: FAK inhibitory activity (IC50)
[14] = biological target: T1, FAK; assay: Eurofins kinase screening and profiling, FAK; assay type: biochemical; parameters: purchased Promega V1971
[15] = biological target: T2, Pyk2; assay: ADP-Glo Kinase Assay, Pyk2; assay type: biochemical; details: ADP-Glo Kinase Assay Kit
Procedure: as §2

[16] = biological target: T5, ALK (Homo sapiens, UniProt Q9UM73); assay: Eurofins kinase screening and profiling, ALK; assay type: biochemical
T5 construct: purchased Eurofins (contract screening service)
T5 sequence (Q9UM73 19-1620): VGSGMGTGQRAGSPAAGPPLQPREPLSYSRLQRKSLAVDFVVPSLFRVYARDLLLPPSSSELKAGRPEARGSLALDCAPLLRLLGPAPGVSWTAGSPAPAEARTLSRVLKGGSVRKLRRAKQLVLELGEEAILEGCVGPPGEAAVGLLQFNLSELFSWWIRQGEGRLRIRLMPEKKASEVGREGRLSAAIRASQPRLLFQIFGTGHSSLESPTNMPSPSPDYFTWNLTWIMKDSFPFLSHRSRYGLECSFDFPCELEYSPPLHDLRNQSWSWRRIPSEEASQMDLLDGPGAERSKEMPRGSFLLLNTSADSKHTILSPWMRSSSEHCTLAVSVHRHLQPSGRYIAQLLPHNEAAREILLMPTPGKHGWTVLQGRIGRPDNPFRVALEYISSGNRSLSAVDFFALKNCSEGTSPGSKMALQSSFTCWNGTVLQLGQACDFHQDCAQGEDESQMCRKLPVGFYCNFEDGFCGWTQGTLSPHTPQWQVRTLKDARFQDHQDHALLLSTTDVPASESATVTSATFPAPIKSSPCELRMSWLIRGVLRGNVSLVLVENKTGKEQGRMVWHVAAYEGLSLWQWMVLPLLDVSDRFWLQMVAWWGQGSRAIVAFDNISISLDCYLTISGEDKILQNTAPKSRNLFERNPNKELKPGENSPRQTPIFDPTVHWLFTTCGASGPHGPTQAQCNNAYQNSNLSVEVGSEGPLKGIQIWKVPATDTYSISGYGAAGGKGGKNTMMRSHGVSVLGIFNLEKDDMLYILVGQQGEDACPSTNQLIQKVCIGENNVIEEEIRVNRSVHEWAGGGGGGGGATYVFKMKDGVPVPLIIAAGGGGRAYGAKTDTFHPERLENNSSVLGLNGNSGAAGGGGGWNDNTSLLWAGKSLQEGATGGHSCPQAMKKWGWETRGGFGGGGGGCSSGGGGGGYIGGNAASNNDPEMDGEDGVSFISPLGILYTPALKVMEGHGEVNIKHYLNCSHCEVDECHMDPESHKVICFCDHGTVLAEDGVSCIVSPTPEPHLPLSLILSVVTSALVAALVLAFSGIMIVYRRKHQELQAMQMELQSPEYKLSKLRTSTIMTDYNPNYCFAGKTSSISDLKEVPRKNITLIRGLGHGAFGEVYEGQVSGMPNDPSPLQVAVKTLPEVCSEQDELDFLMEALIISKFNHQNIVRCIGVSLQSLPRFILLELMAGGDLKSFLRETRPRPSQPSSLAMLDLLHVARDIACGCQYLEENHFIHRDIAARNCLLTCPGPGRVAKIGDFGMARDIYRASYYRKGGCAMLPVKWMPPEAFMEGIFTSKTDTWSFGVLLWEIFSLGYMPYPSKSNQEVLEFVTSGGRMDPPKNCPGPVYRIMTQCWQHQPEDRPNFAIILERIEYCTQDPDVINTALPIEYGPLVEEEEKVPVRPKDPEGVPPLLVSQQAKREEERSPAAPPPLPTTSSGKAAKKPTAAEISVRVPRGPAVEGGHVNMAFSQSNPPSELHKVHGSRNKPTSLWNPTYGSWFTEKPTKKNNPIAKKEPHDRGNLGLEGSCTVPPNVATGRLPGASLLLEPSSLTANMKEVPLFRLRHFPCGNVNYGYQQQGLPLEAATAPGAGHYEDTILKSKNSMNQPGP

[17] = biological target: T1, FAK; assay: ADP-Glo Kinase Assay, FAK; assay type: biochemical; parameters: purchased Promega V1971; details: ADP-Glo Kinase Assay Kit
Procedure: as §2

[18] = at 1 μM, read-out: % inhibition rate (at 1 μM)

T1 sequence (Q05397 whole entry): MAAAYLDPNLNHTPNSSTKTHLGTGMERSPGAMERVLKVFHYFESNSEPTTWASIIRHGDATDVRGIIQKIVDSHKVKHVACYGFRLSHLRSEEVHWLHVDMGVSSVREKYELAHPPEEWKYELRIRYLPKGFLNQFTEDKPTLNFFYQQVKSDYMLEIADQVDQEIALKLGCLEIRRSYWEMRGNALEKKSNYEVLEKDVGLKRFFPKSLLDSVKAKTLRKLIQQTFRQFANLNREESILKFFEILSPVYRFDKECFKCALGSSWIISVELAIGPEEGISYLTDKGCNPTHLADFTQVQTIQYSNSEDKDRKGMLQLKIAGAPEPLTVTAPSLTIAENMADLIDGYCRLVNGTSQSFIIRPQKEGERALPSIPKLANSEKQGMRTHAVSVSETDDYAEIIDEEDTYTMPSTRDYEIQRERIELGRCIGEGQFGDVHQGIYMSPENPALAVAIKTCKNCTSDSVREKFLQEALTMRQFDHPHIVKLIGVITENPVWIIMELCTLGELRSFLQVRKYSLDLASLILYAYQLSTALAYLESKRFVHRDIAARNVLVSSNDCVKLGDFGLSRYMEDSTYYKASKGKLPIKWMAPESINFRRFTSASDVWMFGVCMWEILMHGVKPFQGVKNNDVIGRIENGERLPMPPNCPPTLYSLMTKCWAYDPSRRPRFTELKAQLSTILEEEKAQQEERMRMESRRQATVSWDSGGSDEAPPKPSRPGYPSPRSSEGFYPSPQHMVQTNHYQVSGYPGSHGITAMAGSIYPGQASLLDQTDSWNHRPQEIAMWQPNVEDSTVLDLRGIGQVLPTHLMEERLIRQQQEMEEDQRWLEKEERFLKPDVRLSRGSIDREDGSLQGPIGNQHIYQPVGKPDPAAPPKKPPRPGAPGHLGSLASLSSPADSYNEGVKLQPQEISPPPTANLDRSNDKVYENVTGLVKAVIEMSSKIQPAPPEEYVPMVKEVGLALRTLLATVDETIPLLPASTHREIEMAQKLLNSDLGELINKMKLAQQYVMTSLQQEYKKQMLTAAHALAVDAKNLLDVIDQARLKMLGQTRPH

IC50 [1]: 20 nM
IC50 ([3]; Pyk2, Eurofins): 301 nM
inhibition at 1 µM ([3]; Pyk2, at 1 μM, read-out: % inhibition rate (at 1 μM)): 96%
IC50 [5]: 5670 nM
IC50 ([6]; Eurofins): 542 nM
inhibition at 1 µM [6, 18]: 79%
IC50 [8]: 63 nM
IC50 [9]: 1040 nM
IC50 [10]: 34 nM
IC50 [12]: 49 nM
IC50 [13]: 20 nM
IC50 ([14]; Eurofins): 78 nM
inhibition at 1 µM [14, 18]: 97%
IC50 [15]: 151 nM
IC50 ([16]; Eurofins): 802 nM
inhibition at 1 µM [16, 18]: 72%
IC50 [17]: 46.2 nM
Structure (SMILES): CNC(=O)c1cccc(C)c1Nc1nc(Nc2ccc(N3CCN([C@H]4C5CC6CC4C[C@](O)(C6)C5)CC3)cc2OC)ncc1C(F)(F)F [Compound 4, 2-((2-((4-(4-((trans)-5-hydroxyadamantan-2-yl)piperazin-1-yl)-2-methoxyphenyl)amino)-5-(trifluoromethyl)pyrimidin-4-yl)amino)-N,3-dimethylbenzamide]
IC50 [2]: > 10000 nM
invasion inhibitory activity [4]: excellent invasion inhibitory activity
IC50 [7]: 59 nM
% TGI ([11]; 20 mg/kg once daily): 72.11%
% TGI ([11]; 40 mg/kg once daily): 74.03%
% TGI ([11]; 80 mg/kg once daily): 81.28%
